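Compound exposure: 48 hours, 5 concentrations, 96-well plates. The concentration for 50% growth inhibition is given as GI50.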 Calls of active or inactive are those of the source. No stated cut-off is given here; in the data, active = GI50 up to about 1.1 µM and inactive = higher.
Experiments:
Experiment in all cases: NCI anticancer screen, dose series, 48 h
SR = test system: SR
NCI/ADR-RES = test system: NCI/ADR-RES
SNB-19 = test system: SNB-19
U-251 = test system: U-251
IGROV-1 = test system: IGROV-1
HT-29 = test system: HT-29
NCI-H460 = test system: NCI-H460
CCRF-CEM = test system: CCRF-CEM
A498 = test system: A498
KM12 = test system: KM12
HOP-62 = test system: HOP-62
SK-MEL-5 = test system: SK-MEL-5
UACC-257 = test system: UACC-257
HCC 2998 = test system: HCC 2998
T47D = test system: T47D
K562 = test system: K562
OVCAR-3 = test system: OVCAR-3
OVCAR-5 = test system: OVCAR-5
A549 = test system: A549
Malme-3M = test system: Malme-3M

`CCN(CC)CCOCCOCC1(c2ccc(Cl)c(Cl)c2)CCCCC1` was tested, and the GI50 (SR) was 11 µM (inactive), the GI50 (NCI/ADR-RES) was 11.4 µM (inactive) and the GI50 (SNB-19) was 13.4 µM (inactive). For the same compound, the GI50 (U-251) was 9.25 µM (inactive), the GI50 (IGROV-1) was 8.43 µM (inactive) and the GI50 (HT-29) was 2.29 µM (inactive). For the same compound, the GI50 (NCI-H460) was 3.39 µM (inactive), the GI50 (CCRF-CEM) was 2.99 µM (inactive) and the GI50 (A498) was 13.1 µM (inactive). For the same compound, the GI50 (KM12) was 5.06 µM (inactive), the GI50 (HOP-62) was 7.67 µM (inactive) and the GI50 (SK-MEL-5) was 2.19 µM (inactive). The GI50 (UACC-257) was 2.88 µM (inactive), the GI50 (HCC 2998) was 4.07 µM (inactive) and the GI50 (T47D) was 3.48 µM (inactive). For the same compound, the GI50 (K562) was 2.82 µM (inactive), the GI50 (OVCAR-3) was 8.67 µM (inactive) and the GI50 (OVCAR-5) was 11.5 µM (inactive). The GI50 (A549) was 10.9 µM (inactive) and the GI50 (Malme-3M) was 5.33 µM (inactive).

In the case of `O=C(Nc1cccc(F)c1)c1cc2ccc(O)cc2o/c1=N\c1ccccc1F`, the GI50 (SR) is reported as 2.47 µM (inactive), the GI50 (NCI/ADR-RES) is reported as 2.9 µM (inactive) and the GI50 (SNB-19) is reported as 5.31 µM (inactive). For the same compound, the GI50 (U-251) was 3.21 µM (inactive), the GI50 (IGROV-1) was 2.96 µM (inactive) and the GI50 (HT-29) was 21.2 µM (inactive). For the same compound, the GI50 (NCI-H460) was 3.15 µM (inactive), the GI50 (CCRF-CEM) was 2.47 µM (inactive) and the GI50 (A498) was 16.1 µM (inactive). The GI50 (KM12) was 3.75 µM (inactive), the GI50 (HOP-62) was 8.89 µM (inactive) and the GI50 (SK-MEL-5) was 2.2 µM (inactive). For the same compound, the GI50 (UACC-257) was 4.33 µM (inactive), the GI50 (HCC 2998) was 9.59 µM (inactive) and the GI50 (T47D) was 3.38 µM (inactive). The GI50 (K562) was 2.01 µM (inactive), the GI50 (OVCAR-3) was 3.81 µM (inactive) and the GI50 (OVCAR-5) was 17.2 µM (inactive). For the same compound, the GI50 (A549) was 3.38 µM (inactive) and the GI50 (Malme-3M) was 4.3 µM (inactive).

`N#CC12CC3=C(N=C1NC1=C(CCc4ccccc41)C2)c1ccccc1CC3` (stereo not given) was tested, and the GI50 (SR) was 0.255 µM (active), the GI50 (NCI/ADR-RES) was 2.97 µM (inactive) and the GI50 (SNB-19) was 3.95 µM (inactive). The GI50 (U-251) was 1.58 µM (inactive), the GI50 (IGROV-1) was 1.44 µM (inactive) and the GI50 (HT-29) was 0.533 µM (active). For the same compound, the GI50 (NCI-H460) was 3.06 µM (inactive), the GI50 (CCRF-CEM) was 0.745 µM (active) and the GI50 (A498) was 1.8 µM (inactive). The GI50 (KM12) was 0.938 µM (active), the GI50 (HOP-62) was 5.37 µM (inactive) and the GI50 (SK-MEL-5) was 3.74 µM (inactive). For the same compound, the GI50 (UACC-257) was 17.6 µM (inactive), the GI50 (HCC 2998) was 1.74 µM (inactive) and the GI50 (T47D) was 6.67 µM (inactive). The GI50 (K562) was 0.317 µM (active), the GI50 (OVCAR-3) was 0.538 µM (active) and the GI50 (OVCAR-5) was 4.22 µM (inactive). The GI50 (A549) was 3.32 µM (inactive) and the GI50 (Malme-3M) was 1.71 µM (inactive).

With `COc1ccc2c(c1)c1ccc3c(c1n2C)C(=O)C=CC3=O` the GI50 (SR) was 0.813 µM (active), the GI50 (NCI/ADR-RES) was 5.79 µM (inactive) and the GI50 (SNB-19) was 26 µM (inactive). For the same compound, the GI50 (U-251) was 12.5 µM (inactive), the GI50 (IGROV-1) was 12.7 µM (inactive) and the GI50 (HT-29) was 14 µM (inactive). The GI50 (NCI-H460) was 26.9 µM (inactive), the GI50 (CCRF-CEM) was 0.455 µM (active) and the GI50 (A498) was 25.4 µM (inactive). For the same compound, the GI50 (KM12) was 18 µM (inactive), the GI50 (HOP-62) was 35.5 µM (inactive) and the GI50 (SK-MEL-5) was 19.3 µM (inactive). The GI50 (UACC-257) was 10.9 µM (inactive), the GI50 (HCC 2998) was 17.9 µM (inactive) and the GI50 (T47D) was 2.21 µM (inactive). The GI50 (K562) was 1.22 µM (inactive), the GI50 (OVCAR-3) was 8.39 µM (inactive) and the GI50 (OVCAR-5) was 15.2 µM (inactive). The GI50 (A549) was 29 µM (inactive) and the GI50 (Malme-3M) was 7.76 µM (inactive).

From ChEMBL document CHEMBL1201862, “PubChem BioAssay data set” (2004)
